Reference: patent US11224565B2, “N-acyldipeptide derivatives and their uses” (NeoStrata Company, Inc., priority 2011, dated 2022)
Peptide text beside a SMILES is read from it.

Tested on: skin cut with an open wound
Assay: Topical treatment of skin wound
Assay type: in vivo, human
Settings: 0.5% (w/w) cream twice daily on 2 cm open wound
Text: The subject topically applied twice daily 0.5% (w/w) N—Ac-L-Val-L-Ala-NH2 cream as formulated in Example 2 on the wound. […] At the end of 5 days, the wound had healed nearly completely, and treated skin appeared normal without any signs of scar formation. The wound had 95-100% improvement as judged by clinical evaluation.

CC(=O)N[C@H](C(=O)N[C@@H](C)C(N)=O)C(C)C [N-Ac-L-Val-L-Ala-NH2] (Ac-Val-Ala-NH2)
improvement of wound as judged by clinical evaluation (end of 5 days): 95-100% | wound pain after topical application (left leg): stopped within a few minutes
